The test system of assay [1] is M. abscessus ATCC 19977. The conditions noted are these: positive control, earlier report; cited from earlier work.
The subject of assay [2] is M. abscessus ATCC 19977 (pre-induced). Briefly: microbe, parasite or virus in culture. The assay is classed as cell-based, Mycobacterium abscessus. On the procedure:
(§1) The FICI was calculated by summing the FIC of Rfx and the FIC of Clr. FIC of Clr is the MIC of Clr in the presence of Rfx divided by MIC of Clr alone. FIC of Rfx was similarly calculated.
(§2) To characterize the interaction between Clr and Rfx, checkerboard synergy assays were performed on pre-induced Clr-resistant M. abscessus. The fractional inhibitory concentration index (FICI) obtained from the checkerboard assay defines whether the interaction between the two compounds is either synergistic (FICI≤0.5), additive (0.5<FICI≤1.0), indifferent (1.0<FICI≤4.0), or antagonistic (FICI >4.0) (Noel D J, Keevil C W, Wilks S A. 2021. MBio 12).

The subject of assay [3] is M. avium ATCC 700898 (uninduced). The assay is described as follows: Checkerboard synergy assay. Conditions: for MIC90: Mycobacterium avium, ATCC700898. It counts as cell-based, Mycobacterium avium. On the procedure:
(§3) With Rfx identified as the best potentiator of Clr activity, the interaction between Rfx and Clr was investigated by a checkerboard synergy approach using a broth microdilution method performed in 96-well plates. To provide a classification of the combined antibiotics based on the fractional inhibitory concentration index (FICI), this assay applied the combination of Clr and Rfx in concentrations of 0-64 μg/ml by 2-fold serial dilutions along the abscissa and ordinate, respectively. The FICI was calculated by summing the FIC of Rfx and the FIC of Clr. FIC of Clr is the MIC of Clr in the presence of Rfx divided by MIC of Clr alone. FIC of Rfx was similarly calculated.
As both M. abscessus and M. avium are the main organism groups causing pulmonary NTM (Lim A Y H, et al., 2018. BMC Pulm Med 18 (1):85; Tan Y, et al., 2018. BMC Pulm Med 18 (1): 168), the inventors tested the combination of Clr and Rfx against M. avium in the checkerboard assay as well. With a FICI of 0.563, the interaction between Clr and Rfx was additive in M. avium.

Assay [4] concerns M. abscessus ATCC 19977, M. abscessus strains M422 and M110. The assay is described as follows: Checkerboard synergy assay, statements on all 3 M. abscessus strains. The assay is classed as cell-based, Mycobacterium abscessus. On the procedure: (§4) For checkerboard synergy assay, 3 M. abscessus strains were used: M. abscessus ATCC 19977, M. abscessus strains M422 and M110, while bactericidal activity determination and the zebrafish study were performed with M. abscessus ATCC 19977. All three strains of M. abscessus harbor the inducible clarithromycin resistance-conferring erm(41) T28 sequevar. M. abscessus strain M422 and M110 were provided by Dr. Jeanette Teo, National University Hospital, Singapore (Chew K L, et al., 2017. J Med Microbiol 66: 1443-1447). M. abscessus ATCC 19977 and M. avium ATCC 700898 were acquired from American Type Culture Collection (ATCC).
as §3, §2

Assay [5] has as its system M. abscessus ATCC 19977. Briefly: Zebrafish embryo infection model. It counts as in vivo, zebrafish (Denio rerio). The text has this:
To visualize the bacterial infection in the zebrafish (Denio rerio), a fluorescent strain of M. abscessus ATCC 19977 containing pJKD2893:mScarlet was generated. The pJKD2893 plasmid backbone was a kind gift from Professor Timothy Stinear. The gene expressing the fluorescent protein mScarlet was amplified from μMRE135-mScarlet (Addgene #118489, Mitja Remus-Emsermann lab). The amplification product was annealed by Gibson cloning with the pJKD2893 backbone amplified from a sample of pJKD2893. The resulting plasmid, termed pJKD2893:mScarlet, was electroporated into M. abscessus ATCC 19977 at a culture density equivalent to OD600˜20 using a BioRad GenePulser Xcell set at 2.5 kV, 25 uF, and 1,000Ω. […] Colonies carrying the plasmid were identified by their fluorescence. […]
Preparation of M. abscessus Inoculum and Zebrafish Infections Cultures of M. abscessus-pJKD2893:mScarlet in 7H9 media supplemented with 50 μg/ml kanamycin were grown to OD600 of 0.2-0.3 and concentrated to OD600 of 1 in 0.1% PBS-Tween-20. […] The actual CFU in the inoculum was determined a posteriori by injecting into 50 μl 0.1% PBS-Tween-20 and streaking on a plate. […]
Larvae were harvested to assess the bacterial load at 5 d post-infection using a slightly modified version of the Kremer lab method (Bernut et al., Antimicrob Agents Chemother 58: 4054-4063). […] Fluorescent colonies were counted after 5-6 days. […]

Assay [6] relates to M. abscessus strain M422. Briefly: Single-concentration assay with and without clarithromycin (hit validation). It counts as cell-based, Mycobacterium abscessus. As for the experimental part:
as §4
(§5) Primary screening was carried out in 96-well flat-bottom Corning Costar cell culture plates at 50 μM compound along with 4 μg/ml of Clr in a starting inoculum of pre-induced M. abscessus cells at OD600 of 0.005 in a final volume of 100 μl. The plates were put in an airtight container with moist paper towels and incubated for 4 d at 30° C. The cultures in the wells were resuspended before OD600 was read in a BioTek Synergy 4 plate reader.
To start the validation process, the top 10 compounds with >90% growth inhibition were chose to perform a single-concentration assay, with and without clarithromycin. Finally, the inventors obtained 7 compounds that potentiated Clr efficacy.

Assay [7] relates to M. abscessus strain M110 (pre-induced). The assay is described as follows: microbe, parasite or virus in culture. The assay is classed as cell-based, Mycobacterium abscessus. As for the experimental part:
as §1, §2

In assay [8] the test system is M. abscessus strain M422 (pre-induced). Briefly: microbe, parasite or virus in culture. It counts as cell-based, Mycobacterium abscessus. On the procedure: as §1, §2
The subject of assay [9] is M. abscessus strain M422. The assay is described as follows: Primary compound screening against pre-induced bacterial cells. It counts as cell-based, Mycobacterium abscessus. The conditions noted are these: 50 μM compound with 4 μg/ml Clr. As for the experimental part: A total of 2,252 drugs/compounds comprising 1,576 FDA-approved drugs and 676 clinical compounds were purchased from MedChemExpress. The compounds were dissolved in dimethyl sulfoxide (DMSO) to a stock concentration of 10 mM. The Clr resistance in M. abscessus was induced for 3 days under 0.5 μg/ml of Clr before being subjected to compound screening.
as §5
A compound library consisting of 2,252 FDA-approved and clinical-stage drugs was screened against M. abscessus clinical strain M422. Bacteria were exposed to a sub-inhibitory concentration of Clr (0.5 μg/ml) for 3 days to induce Clr resistance. The test drugs were screened at 50 μM in the presence of 4 μg/ml of Clr to maintain the Clr-resistance phenotype.

Where [10] appears, read: Mycobacteroides abscessus, alone, read-out: MIC90 Rfx individually.

Structures are written as SMILES. Values joined by “and” are separate entries in the source; they are usually repeats but may differ in a detail not shown here. Identical values can stand only once. Like-named read-outs stand apart in the source and are kept apart here.

Consider `COc1nc2ccc(Br)cc2cc1[C@@H](c1ccccc1)[C@@](O)(CCN(C)C)c1cccc2ccccc12` [Bedaquiline], for which, in the assay with M. abscessus ATCC 19977 [1], the “efficacy against M. abscessus in zebrafish embryos” value is on record as “demonstrated efficacy”.

Turning to `CC[C@H]1OC(=O)[C@H](C)[C@@H](O[C@H]2C[C@@](C)(OC)[C@@H](O)[C@H](C)O2)[C@H](C)[C@@H](O[C@@H]2O[C@H](C)C[C@H](N(C)C)[C@H]2O)[C@](C)(OC)C[C@@H](C)C(=O)[C@H](C)[C@@H](O)[C@]1(C)O` [Clarithromycin, clarithromycin], the “Percentage of bacterial growth” value in assay [2] (clarithromycin 1 μg/ml, partner antibiotic 0 μg/ml) is 80.1% and 116.9% and 119.5% and 108.3% and 97.8% and 90.2% and 95.5%; in assay [2] (clarithromycin 2 μg/ml, partner antibiotic 0 μg/ml), 80.6% and 99.5% and 102.2% and 98.9% and 80.2% and 84.8% and 96.8%; in assay [2] (clarithromycin 4 μg/ml, partner antibiotic 0 μg/ml), 86.2% and 113.2% and 103.4% and 117.2% and 82.7% and 78.4% and 93.3%; in assay [2] (clarithromycin 8 μg/ml, partner antibiotic 0 μg/ml), 76.2% and 102.8% and 93.2% and 108.1% and 71.4% and 97.4% and 92.9%; in assay [2] (clarithromycin 16 μg/ml, partner antibiotic 0 μg/ml), 64.0% and 109.5% and 86.1% and 101.8% and 72.3% and 89.6% and 89.7%; in assay [2] (clarithromycin 32 μg/ml, partner antibiotic 0 μg/ml), 77.4% and 84.3% and 83.8% and 115.7% and 59.0% and 98.2% and 95.4%. Moreover, the MIC90 in assay [3] (read-out: MIC90) is < 0.1 µg/mL. In addition, the “reduction of the MIC of Clr when used in combination with Rfx” value in [4] (pre-induced M. abscessus strains (FIG. 4, Table 2)) is “at least 16 fold”. Moreover, the “effect on bacterial load” value with M. abscessus ATCC 19977 [5] (Clr alone up to 74.8 μg/ml (100 μM), immersion for 4 days (FIG. 6A)) was “unable to reduce bacterial load”.

For `CO[C@H]1/C=C/O[C@@]2(C)Oc3c(C)c(O)c4c(O)c(c5c(nc6cc(C)ccn65)c4c3C2=O)NC(=O)/C(C)=C\C=C\[C@H](C)[C@H](O)[C@@H](C)[C@@H](O)[C@@H](C)[C@H](OC(C)=O)[C@@H]1C` [Rifaximin, rifaximin], the “% inhibition with 0.5 μg/ml Clr” value with M. abscessus strain M422 [6] (compound combined with clarithromycin) is reported as 100%. Moreover, the “% inhibition with compound alone” value in the assay with M. abscessus strain M422 [6] (without clarithromycin) is recorded as 85.6%. The MIC90 is 128 µg/mL in assay [2] (Mycobacteroides abscessus, ATCC19977, read-out: MIC90 Rfx individually); 128 µg/mL in assay [7] (setting [10]); 16 µg/mL in assay [8] (setting [10]); 0.03 µg/mL in assay [3] (alone, read-out: MIC90 Rfx individually); < 0.1 µg/mL in assay [3] (read-out: MIC90). The “MIC90 Rfx in combination” value in assay [2] (in combination with Clr) was 4 µg/mL; in assay [7], 4 µg/mL; in [8] it was 1 µg/mL; in assay [3] (in combination with Clr), 0.015 µg/mL. The “concentration at which significant synergistic effects with clarithromycin are shown” value in assay [4] (Table 2) was ≥ 1 µg/mL. Besides, in [4] (tested alone), the “MIC of Rfx” value is on record as “extremely high”. Moreover, the CFU reduction entry with M. abscessus ATCC 19977 [5] (19.6 μg/ml Rfx alone, immersion for 4 days) is on record as “did not show any CFU reduction”.

In the case of `CO[C@H]1/C=C/O[C@@]2(C)Oc3c(C)c(O)c4c(c3C2=O)C2=NC3(CCN(CC(C)C)CC3)NC2=C(NC(=O)/C(C)=C\C=C\[C@H](C)[C@H](O)[C@@H](C)[C@@H](O)[C@@H](C)[C@H](OC(C)=O)[C@@H]1C)C4=O` [rifabutin], the “hit status in primary screening” value in the assay on M. abscessus strain M422 [9] is recorded as “one of the top hits”. Also, the “Percentage of bacterial growth” value in assay [2] (clarithromycin 0 μg/ml, partner antibiotic 1 μg/ml) was 105.5%; in assay [2] (clarithromycin 0 μg/ml, partner antibiotic 2 μg/ml), 101.8%; in assay [2] (clarithromycin 0 μg/ml, partner antibiotic 4 μg/ml) it was 99.4%; in assay [2] (clarithromycin 0 μg/ml, partner antibiotic 8 μg/ml) it was 100.2%; in [2] (clarithromycin 0 μg/ml, partner antibiotic 16 μg/ml) it was 79.1%; in assay [2] (clarithromycin 0 μg/ml, partner antibiotic 32 μg/ml), 9.2%. In addition, the “Percentage of bacterial growth” value in [2] (clarithromycin 0 μg/ml, partner antibiotic 64 μg/ml) is given as 1.2%.

The values above are taken from patent publication US20260130932A1, “NOVEL COMBINATION OF RIFAXIMIN AND CLARITHROMYCIN FOR TREATING MULTIDRUG-RESISTANT MYCOBACTERIUM ABSCESSUS” (priority 2022, published 2026).
